Patent US20240148835A1, “TREATING DISORDERS ASSOCIATED WITH DYRK1A DYSFUNCTION” (UNIVERSITY OF FLORIDA RESEARCH FOUNDATION, INCORPORATED, priority 2021, published 2024)
Entries after “also recorded” stand apart in the source; their conditions may differ.

Assays:
[1] = tested on: ASD mouse models; conditions: cited from earlier work
[2] = tested on: Dyrk1a cHets; experiment: Neonatal (1-3)IGF-1 injection in Dyrk1a cHet pups: cortex mass, layer V soma size, p-S6; type: in vivo, mouse
Procedure: We next aimed to increase mTOR signaling via pharmacological intervention. Because activation of TrkB receptor is decreased in cKOs, treating mice with exogenous BDNF may not be effective. To circumvent this issue while stimulating the same signaling cascades, we injected neonatal pups with (1-3)IGF-1 (GPE), a tripeptide cleaved from the N-terminus of IGF-1 (44). Pups were injected daily from P0 to P7 with 10 μg/g (1-3)IGF-1 or vehicle based on a previously described treatment paradigm (45). Eight hours post-injection on P7, pups were sacrificed, and brains were fixed (FIG. 7F).
(1-3)IGF-1 treatment: (1-3)IGF-1 was acquired from VWR/Bachem (catalog #H-2468.1000) and dissolved in saline with 0.01% BSA fresh every day. Intraperitoneal injections of 10 μg/g (1-3)IGF-1 or vehicle were delivered daily at 8 a.m. starting on P1 and ending on P7. […] Pups were individually removed, injected, and placed back in the home cage with the dam. On P7, 6 hours post-injection, pups were rapidly decapitated for downstream analysis.
Immunohistochemistry: Adult animals were perfused with 4% PFA, and pups underwent rapid decapitation and dissection. After 18 hours post-fixation in 4% PFA, brains were incubated in a 20% sucrose/PBS solution at 4° C. for 2-3 days and embedded in Tissue-Tek OCT compound (Sakura). 40 μm sections were collected on Superfrost/Plus slides and stained. The following primary antibodies were used following antigen retrieval (10 min. in boiling 10× citrate buffer): anti-cleaved caspase 3 (1:1000, Cell Signaling Technology, catalog #9661S), anti-Ctip2 (1:2000, Abcam, catalog #18465), anti-p-S6 Ser235/236 (1:2000, Cell Signaling Technology, catalog #4858S). AlexaFluor-488, -594, and -647-conjugated secondary antibodies (1:2000) were purchased from Invitrogen. DAPI was used for nuclear labeling (Invitrogen, catalog #D3571). Slides were mounted with Vectashield HardSet and images were obtained with an Olympus VS120 microscope and processed using the VS-DESKTOP software (Olympus) or ImageJ (NIH).
For p-S6 intensity, P0, P7, and adult sections were stained with Ctip2 and p-S6 (Ser235/236). […] After image acquisition, Ctip2+ neurons were measured for p-S6 mean gray intensity. 25-30 neurons were measured per section and 2 plane-matched sections were analyzed per animal.
For soma size analysis, sections were stained with NeuroTrace green fluorescent Nissl stain (1:100 dilution, Life Technologies catalog #N-21480) and washed with PBS. After image acquisition, somas in each layer in somatosensory cortex (51) were measured using the ImageJ freehand tool. Layers were denoted based on anatomical boundaries using DAPI staining. 30-35 somas were measured per layer and 2-3 plane-matched sections were analyzed per animal. This was done based on a previously published technique (8).

[3] = tested on: cHet primary cortical neurons; experiment: In vitro primary cortical neuron culture, Sholl analysis of Ctip2+ neurons; type: cell-based, mouse
Procedure: Lastly, to test whether (1-3)IGF-1 treatment rescues the decreased complexity of Dyrk1a cHet neurons, we cultured control and cHet primary cortical neurons. Neurons analyzed were restricted to Ctip2+ neurons, as we are focused on the impact of Dyrk1a mutations on the growth and connectivity of layer V pyramidal neurons.
In vitro primary neuronal culture: Brains from P0 mice were removed, and whole cortices were dissected. Individual cortices were placed into 1 mL chilled dissecting media (1× HBSS (14175-095), 30 mM glucose, 60 μM HEPES). After aspiration of the dissecting media, the tissue was enzymatically dissociated with papain (LS003126) that was previously diluted 1:80 in pre-warmed plating media [Neurobasal A (10888-022), 5% FBS (16000044), and 1% penicillin/streptomycin (p/s)/0.25% glutamine (10378-016)] and incubated at 37° C. for 15 min. The papain was removed, and the tissue was pipetted into a single-cell suspension in plating media. The suspensions were filtered using 40 μm nylon cell strainers (Fisher Scientific, #352340), and the filtered suspension was centrifuged at 280 RCF for 5 min. […] Samples of the suspensions were diluted 1:4 in trypan blue, and cells were counted with a manual hemocytometer for determination of sample concentration. […]
All coverslip images were taken at 40× magnification on an Olympus VS-120 epifluorescence microscope and analyzed with ImageJ (NIH). […]

[4] = tested on: mouse model of Rett syndrome; conditions: chronic administration, same paradigm; cited from earlier work

Q: Which brain penetrance ([1]; ASD mouse models, dosage 10 μg/g (10 mg kg)) does the source give for “(1-3)IGF-1: a tripeptide cleaved from the N-terminus of IGF-1; acquired from VWR/Bachem, CAS No. 32302-76-4 (GPE; Insulin-like growth factor 1; UniProt P05019 49-51, looked up, fragment)” here?
A: brain penetrance

Q: What about the “signaling downstream of IGF-1” value ([1]; within 3 hours post-injection) of the same substance?
A: increased signaling downstream of IGF-1

Q: What about the “cortex mass of controls” value ([2]; control pups, 10 μg/g daily to P7) of the same substance?
A: no effect

Q: And the “p-S6 per layer V neuron in cHets” value ([2]; neonatal cHets, 10 μg/g daily to P7, Ctip2+ neurons)?
A: normal levels; also recorded: rescues the decreased p-S6

Q: And the “soma size of layer V neurons in cHets” value ([2]; neonatal cHets, 10 μg/g daily to P7, Nissl stain)?
A: comparable to controls; also recorded: rescues the decreased soma size

Q: What about the “cortex mass of cHets” value ([2]; neonatal cHets, 10 μg/g daily to P7, analysed P7, vs vehicle) of the same substance?
A: rescues the decreased cortex mass

Q: What about the “neuronal complexity (Sholl arborization) of cHet neurons” value ([3]; 100 ng/mL daily from DIV13 to DIV15, Ctip2+ neurons, DIV15) of the same substance?
A: rescued; also recorded: rescues decreased arborization

Q: And the “neuronal complexity of control neurons” value ([3]; 100 ng/mL daily from DIV13 to DIV15, DIV15)?
A: did not affect control neurons

Q: And the “lifespan, motor coordination, cardiac function, microcephaly, spine density, and synaptic function” value [4]?
A: significantly improved
